{"source": "patent US20060141076A1", "about": "“Morinda citrifolia based compositions and methods for inhibiting xanthine oxidase” (priority 2004, published 2006)", "target": "T1, Xanthine Oxidase (Bos taurus, UniProt P80457)", "T1 construct": "Xanthine Oxidase was obtained from Bovine butter milk; from tissue; host or cells: bovine buttermilk", "T1 sequence (P80457 whole entry)": "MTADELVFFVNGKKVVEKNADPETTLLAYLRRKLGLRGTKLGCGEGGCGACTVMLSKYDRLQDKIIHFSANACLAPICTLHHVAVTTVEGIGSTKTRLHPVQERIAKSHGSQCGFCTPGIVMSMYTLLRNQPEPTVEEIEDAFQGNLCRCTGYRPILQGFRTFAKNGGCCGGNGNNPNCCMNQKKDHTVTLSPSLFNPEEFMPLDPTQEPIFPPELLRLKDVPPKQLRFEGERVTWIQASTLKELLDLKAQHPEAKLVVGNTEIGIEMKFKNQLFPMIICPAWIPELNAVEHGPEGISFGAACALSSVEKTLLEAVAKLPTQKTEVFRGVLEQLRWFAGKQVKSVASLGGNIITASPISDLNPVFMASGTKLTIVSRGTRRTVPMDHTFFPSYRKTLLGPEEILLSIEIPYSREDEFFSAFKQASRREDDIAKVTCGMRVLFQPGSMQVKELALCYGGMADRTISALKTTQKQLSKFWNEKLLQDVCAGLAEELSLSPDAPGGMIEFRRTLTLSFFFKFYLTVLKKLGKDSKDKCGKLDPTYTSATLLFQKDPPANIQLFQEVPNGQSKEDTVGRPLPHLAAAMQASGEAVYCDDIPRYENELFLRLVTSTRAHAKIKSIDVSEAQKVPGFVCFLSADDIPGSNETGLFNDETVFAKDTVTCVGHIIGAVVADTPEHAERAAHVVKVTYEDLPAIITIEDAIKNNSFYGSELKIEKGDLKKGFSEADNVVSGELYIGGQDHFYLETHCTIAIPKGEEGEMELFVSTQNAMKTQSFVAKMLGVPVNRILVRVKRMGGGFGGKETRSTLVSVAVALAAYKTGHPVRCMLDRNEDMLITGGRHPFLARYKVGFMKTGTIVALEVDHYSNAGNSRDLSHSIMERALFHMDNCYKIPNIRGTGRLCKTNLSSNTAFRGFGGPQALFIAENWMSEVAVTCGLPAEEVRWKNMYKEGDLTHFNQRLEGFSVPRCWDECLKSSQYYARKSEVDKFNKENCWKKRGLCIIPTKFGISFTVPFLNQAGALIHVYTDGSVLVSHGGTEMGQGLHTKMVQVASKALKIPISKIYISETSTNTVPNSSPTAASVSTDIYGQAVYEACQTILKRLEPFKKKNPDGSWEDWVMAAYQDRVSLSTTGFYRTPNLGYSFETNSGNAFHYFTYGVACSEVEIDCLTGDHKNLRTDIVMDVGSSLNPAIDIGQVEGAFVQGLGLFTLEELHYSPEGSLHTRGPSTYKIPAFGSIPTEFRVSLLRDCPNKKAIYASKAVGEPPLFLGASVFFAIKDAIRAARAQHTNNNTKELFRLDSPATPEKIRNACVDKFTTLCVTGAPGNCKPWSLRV", "assay": "Xanthine oxidase inhibition assay (uric acid quantitated by spectrophotometer, 165 μM xanthine substrate)", "assay_type": "biochemical, Bovine", "settings": "Allopurinol comparison; concentration not given", "excerpt": "All other results are expressed in terms of that assay's quantitation method. For primary assays, only the lowest concentration with a significant response judged by the assays' criteria, is shown in this summary.\nMethods employed in this study were adapted from the scientific literature to maximize reliability and reproducibility."}
{"smiles": "Oc1ncnc2[nH]ncc12", "note": "[Allopurinol]", "values": [{"measurement": "percent inhibition of xanthine oxidase", "value": "approximately 90%"}]}
